Reference: ChEMBL document CHEMBL3885861, “Open TG-GATES”

Species: Rattus norvegicus
Assay: Open TG-GATES - Regimen: Single
Type: toxicity, organism-based, Sprague-Dawley
Design: regimen Single, gender Male, age 6 weeks
Conditions: in vivo, po, 50 mg/kg, route gavage, dose level High; for ALT / AST / BUN / CRE / Ca / Cl / DBIL / GLC / IP / K / LDH / Na / PL / RALB / TBIL / TC / TG / TP / gamma-GTP / A/G / ALP: tissue Plasma; for APTT / Bas / Eos / Fbg / Hb / Ht / Lym / MCH / MCHC / MCV / Mono / Neu / PT / Plat / RBC / Ret / WBC: tissue Blood; for KIDNEY_L / KIDNEY_R / KIDNEY_TOTAL: tissue Kidney; for LIVER: tissue Liver

## COc1ccc2c(c1)c(CC(=O)O)c(C)n2C(=O)c1ccc(Cl)cc1 [INDOMETHACIN]
3 h
  ALT: 41.2 IU/L
  AST: 75 IU/L
  BUN: 11.4 mg/dL
  CRE: 0.4 mg/dL
  Ca: 10.4 mg/dL
  Cl: 102 meq/L
  DBIL: 0.072 mg/dL
  GLC: 217.4 mg/dL
  IP: 10.5 mg/dL
  K: 3.9 meq/L
  LDH: 221 IU/L
  Na: 140.4 meq/L
  PL: 125.4 mg/dL
  RALB: 3.3 g/dL
  TBIL: 0.1 mg/dL
  TC: 69.6 mg/dL
  TG: 43.4 mg/dL
  TP: 5.4 g/dL
  gamma-GTP: 1 IU/L
6 h
  TERMINAL_BW: 223.2 g
  APTT: 18.3 s
  Bas: 0%
  Eos: 0.4%
  Fbg: 214.4 mg/dL
  Hb: 13.7 g/dL
  Ht: 37.2%
  Lym: 64%
  MCH: 22.4 pg
  MCHC: 36.9%
  MCV: 60.8 fL
  Mono: 4.6%
  Neu: 28.6%
  PT: 12.3 s
  Plat: 113.8 x10_4/uL
  RBC: 612.2 x10_4/ul
  Ret: 8%
  WBC: 123.9 x10_2/uL
  KIDNEY_L: 0.9 g
  KIDNEY_R: 0.9 g
  KIDNEY_TOTAL: 1.9 g
  LIVER: 9.5 g
  A/G: 1.7
  ALP: 705.2 IU/L
  ALT: 35.4 IU/L
  AST: 73 IU/L
  BUN: 12.8 mg/dL
  CRE: 0.4 mg/dL
  Ca: 10.6 mg/dL
  Cl: 102.6 meq/L
  DBIL: 0.08 mg/dL
  GLC: 194.2 mg/dL
  IP: 9.4 mg/dL
  K: 4.1 meq/L
  LDH: 211.2 IU/L
  Na: 140.4 meq/L
  PL: 120.6 mg/dL
  RALB: 3.3 g/dL
  TBIL: 0.1 mg/dL
  TC: 64.8 mg/dL
  TG: 60.2 mg/dL
  TP: 5.3 g/dL
  gamma-GTP: 1 IU/L
9 h
  TERMINAL_BW: 222.5 g
  APTT: 19 s
  Bas: 0%
  Eos: 0.2%
  Fbg: 215.2 mg/dL
  Hb: 13.7 g/dL
  Ht: 36.9%
  Lym: 68.4%
  MCH: 22.5 pg
  MCHC: 37.2%
  MCV: 60.4 fL
  Mono: 3.8%
  Neu: 24.8%
  PT: 12.2 s
  Plat: 113.6 x10_4/uL
  RBC: 610.6 x10_4/ul
  Ret: 8%
  WBC: 107.9 x10_2/uL
  KIDNEY_L: 1 g
  KIDNEY_R: 1 g
  KIDNEY_TOTAL: 1.9 g
  LIVER: 9 g
  A/G: 1.7
  ALP: 738.8 IU/L
  ALT: 30.4 IU/L
  AST: 68.4 IU/L
  BUN: 12.8 mg/dL
  CRE: 0.4 mg/dL
  Ca: 10.3 mg/dL
  Cl: 103.8 meq/L
  DBIL: 0.072 mg/dL
  GLC: 200.8 mg/dL
  IP: 9.9 mg/dL
  K: 4.1 meq/L
  LDH: 199 IU/L
  Na: 140.6 meq/L
  PL: 126.6 mg/dL
  RALB: 3.3 g/dL
  TBIL: 0.1 mg/dL
  TC: 69.2 mg/dL
  TG: 40.8 mg/dL
  TP: 5.2 g/dL
  gamma-GTP: 1.2 IU/L
24 h
  TERMINAL_BW: 230 g
  APTT: 21.7 s
  Bas: 0%
  Eos: 0%
  Fbg: 260.8 mg/dL
  Hb: 9.5 g/dL
  Ht: 27%
  Lym: 61.4%
  MCH: 21.3 pg
  MCHC: 35.1%
  MCV: 60.6 fL
  Mono: 2.8%
  Neu: 33.4%
  PT: 12.7 s
  Plat: 67.9 x10_4/uL
  RBC: 448.8 x10_4/ul
  Ret: 8.4%
  WBC: 122.6 x10_2/uL
  KIDNEY_L: 1 g
  KIDNEY_R: 1 g
  KIDNEY_TOTAL: 2 g
  LIVER: 10.4 g
  A/G: 1.2
  ALP: 484.2 IU/L
  ALT: 25.2 IU/L
  AST: 48 IU/L
  BUN: 21.6 mg/dL
  CRE: 0.4 mg/dL
  Ca: 9.4 mg/dL
  Cl: 106.2 meq/L
  DBIL: 0.056 mg/dL
  GLC: 167.8 mg/dL
  IP: 8.6 mg/dL
  K: 4.2 meq/L
  LDH: 145.2 IU/L
  Na: 141.2 meq/L
  PL: 114 mg/dL
  RALB: 1.9 g/dL
  TBIL: 0.096 mg/dL
  TC: 60.4 mg/dL
  TG: 122.8 mg/dL
  TP: 3.5 g/dL
  gamma-GTP: 1 IU/L
